Measured values as given in patent US9220706B2, “Inhibition of leukemic stem cells by PP2A activating agents” (Ohio State Innovation Foundation, priority 2012, dated 2015).

Legend:
CML cells = assay: Long term culture-initiating cell (LTC-IC) assay; assay type: cell-based, human; conditions: drug during first week of 6-week culture, vs untreated
Description: Long term culture-initiating cell (LTC-IC) and Colony-forming cell (CFC)/replating assays. 2×10^6 mononuclear CML cells were cultured with a 1:1 mixture of irradiated (80 Gy) IL-3/G-CSF-producing M2-10B4 and IL-3/KL-producing SI/SI murine fibroblasts in MyeloCult H5100 (StemCell Technologies) supplemented with hydrocortisone. Drugs were present during the first week of culture. Medium was replaced after 7 days, followed by weekly half-medium changes. After 6 weeks, adherent and floating cells were harvested and 5×10^4 cells plated into MethoCult H4435. LTC-IC-derived colonies were scored after 14 days. For CFC/replating, individual 14-day colonies from 10^3-10^5 CD34+/CD38− CML or 0.2×10^3-10^3 leukemic LSK cells plated in 0.9% H4435 or M3234 MethoCult, respectively, containing KL, G-CSF, GM-CSF, IL-3, IL-6, and Epo were replated and scored 2 weeks later.

[1] = tested on: Lin^− SCLtTA-BCR-ABL1 cells; assay: CFSE-mediated tracking of quiescent cells, mouse leukemic; assay type: cell-based; conditions: 2.5 μM FTY720
Description: CFSE-mediated tracking of cell division. Carboxyfluorescein diacetate succinimidyl diester (CFSE)-stained cells (CellTrace CFSE Proliferation Kit: Invitrogen) were cultured in the presence of the indicated drugs (dosed at time zero and at day three), and the cells were harvested after 3 or 6 days in culture, and stained with anti-CD34 PE, Annexin-V V450, and the viability stain 7-AAD (BD Bioscience) to determine the number of viable quiescent cells (CFSEmax/CD34^+/7-AAD− cells) and the percentage of quiescent and apoptosis-committed cells (CFSEmax/CD34+/Annexin V+/7-AAD±). Cells were sorted into dividing and quiescent populations for Western blot analysis. For assessment of mouse quiescent leukemic HSCs, Lin- cells from 8 week-induced SCLtTA/BCR-ABL1 mice were CFSE-stained and used as described above. Quiescent cells (CFSE^max/CD34^+) were reported as a fraction of the initial number of CD34^+ cells.

BCR-ABL1 = assay: Intracellular flow staining of active BCR-ABL1 (pABL); assay type: cell-based, human
Description: Flow cytontetric analysis and sorting of HSCs. Primary CD34^+ cells were isolated by magnetic cell sorting (CD34 MultiSort; Miltenyi Biotec) and kept in IMDM supplemented with 30% FBS, 2 mM Lglutamine, rhIL-3 (20 ng/ml), rhIL-6 (20 ng/ml), rhFlt-3 ligand (100 ng/ml), and rhKL (100 ng/ml) (Stem Cell Technologies). The CD34+ fraction derived from the BM of healthy donors and the PB or BM from CML patients was stained with anti-CD34 FITC or PE, and anti-CD38 PE-Cy7 (BD Biosciences). The Lin− fraction of murine mononuclear cells was stained with anti-Sca-1 PeCy7 (BD Biosciences) and anti-c-kit APC-AlexaFluor750 (eBioscience), The CD34^+/CD38^− or the Lin−/Sca-1+/c-Kit+ (LSK) fractions were sorted by fluorescence-activated cell sorting with a FACS Aria II instrument (BD Biosciences). […]

[2] = tested on: β-catenin-driven (LEF/TCF) transcriptional activity; assay: LEF/TCF reporter assay; assay type: cell-based, human; conditions: CD34^+/CD38^− CML and 32D-BCR/ABL cells
Description: LEF/TCF reporter assay. CD34+/CD38− CML cells were transduced with pBAR or pfuBAR (negative control) ®-catenin lentiviral reporter constructs (54), puromycin-selected and treated with the indicated drugs. Luciferase was measured using the Bright-Glo Luciferase system (Promega).

[3] = tested on: UCB CD34^+ cells in NSG mice; conditions: mouse, in vivo
Source text: Engraftment of Human Normal and CML Cells in Immnunodeficient NSG Mice and Effect of FTY720 on Leukemic and Normal Hematopoietic Stem/Progenitor Cells. CD34+ cells were isolated from BM of CML patients (n=3) or from umbilical cord blood specimens (UCB; n=3). Note that CML samples were from patients in blastic transformation with ≧75% of Ph+ blasts. Sublethally irradiated (260 rads) 6-8 week-old NOD.Cg-Prkds^scid IL2rg^tm1WjI/SzJ (NSG, Jackson Laboratory) mice were intrafemorally injected with 1-3×10^6 CML or 10^5 UCB CD34^+ cells/mouse. The engraftment was assessed 8 weeks post-transplant by anti-human CD45 (BD Biosciences) and anti-mouse CD45.1 flow staining of intrafemoral BM aspirates and PB from tail vein. Wunderlich et al., Leukemia 24, 1785-1788 (2010). […] Disease evolution and effect of FTY720 on HSC-enriched cell fraction (CD45^+/CD34^+/CD38^−), primitive progenitors (CD45+/CD34+), myeloid (CD45^+/CD34^+/CD33^+), B-cell (CD45^+/CD19^+) and T-cell (CD45^+/CD3^+) compartments were determined before and after 4/8 weeks of FTY720 treatment by FACS-mediated analysis of BM aspirates and/or PB cells. BCR-ABL1 transcript levels were monitored by qRT-PCR-mediated (Ipsogen) analysis of BCR-ABL1/human Abl1 ratios in total RNA samples derived from BM-aspirates of CML-engrafted animals at time of engraftment (time 0) and after 8 weeks of FTY720 treatment. […]

SMILES: CCCCCCCCc1ccc(CCC(N)(CO)CO)cc1 [FTY720]
- inhibition of LTC-ICs (CML cells): 60-70%
- decrease in CFSE^max HSCs [1]: 70-90%
- inhibition of BCR-ABL1 activity (pABL levels) (BCR-ABL1; bulk CD34 CML cells): occurred in the bulk
- inhibition of BCR-ABL1 activity (pABL levels) (BCR-ABL1; quiescent fraction (CFSE^max) of CD34 CML cells): not in the quiescent fraction
- β-catenin transcriptional activity (LEF/TCF luciferase) [2]: markedly impaired
- effect on human BM cell fractions [3]: did not exert noteworthy effects
- numbers of circulating B-(CD19^+) and T-(CD3^+) cells [3]: reduced numbers
